{
  "source": "patent US8389526B2",
  "about": "“3-heteroarylmethyl-imidazo[1,2-b]pyridazin-6-yl derivatives” (Novartis AG, priority 2009, dated 2013)",
  "key": {"[1]": {"system": "MET-amplified gastric cancer cell line GTL-16", "experiment": "GTL-16 proliferation assay (MTS)", "assay_type": "cell-based", "conditions": "Homo sapiens, GTL-16 cells, 72 h incubation", "summary_of_the_method": "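GTL-16 cells were seeded at 3000/well in DMEM with 10% FCS. After 24 h they were treated in triplicate with a 10-point, 3-fold dilution series ([…]; DMSO-only control) for 72 h. Viable cells were measured by MTS, with OD 490 nm read after 30 min.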"}, "c-Met": {"target": "T1, c-Met (Homo sapiens, UniProt P08581)", "T1 construct": "adapted to measure the phosphorylation of endogenous cellular proteins in cell lysates; endogenous in cells; host or cells: GTL-16", "T1 sequence (P08581 25-1390)": "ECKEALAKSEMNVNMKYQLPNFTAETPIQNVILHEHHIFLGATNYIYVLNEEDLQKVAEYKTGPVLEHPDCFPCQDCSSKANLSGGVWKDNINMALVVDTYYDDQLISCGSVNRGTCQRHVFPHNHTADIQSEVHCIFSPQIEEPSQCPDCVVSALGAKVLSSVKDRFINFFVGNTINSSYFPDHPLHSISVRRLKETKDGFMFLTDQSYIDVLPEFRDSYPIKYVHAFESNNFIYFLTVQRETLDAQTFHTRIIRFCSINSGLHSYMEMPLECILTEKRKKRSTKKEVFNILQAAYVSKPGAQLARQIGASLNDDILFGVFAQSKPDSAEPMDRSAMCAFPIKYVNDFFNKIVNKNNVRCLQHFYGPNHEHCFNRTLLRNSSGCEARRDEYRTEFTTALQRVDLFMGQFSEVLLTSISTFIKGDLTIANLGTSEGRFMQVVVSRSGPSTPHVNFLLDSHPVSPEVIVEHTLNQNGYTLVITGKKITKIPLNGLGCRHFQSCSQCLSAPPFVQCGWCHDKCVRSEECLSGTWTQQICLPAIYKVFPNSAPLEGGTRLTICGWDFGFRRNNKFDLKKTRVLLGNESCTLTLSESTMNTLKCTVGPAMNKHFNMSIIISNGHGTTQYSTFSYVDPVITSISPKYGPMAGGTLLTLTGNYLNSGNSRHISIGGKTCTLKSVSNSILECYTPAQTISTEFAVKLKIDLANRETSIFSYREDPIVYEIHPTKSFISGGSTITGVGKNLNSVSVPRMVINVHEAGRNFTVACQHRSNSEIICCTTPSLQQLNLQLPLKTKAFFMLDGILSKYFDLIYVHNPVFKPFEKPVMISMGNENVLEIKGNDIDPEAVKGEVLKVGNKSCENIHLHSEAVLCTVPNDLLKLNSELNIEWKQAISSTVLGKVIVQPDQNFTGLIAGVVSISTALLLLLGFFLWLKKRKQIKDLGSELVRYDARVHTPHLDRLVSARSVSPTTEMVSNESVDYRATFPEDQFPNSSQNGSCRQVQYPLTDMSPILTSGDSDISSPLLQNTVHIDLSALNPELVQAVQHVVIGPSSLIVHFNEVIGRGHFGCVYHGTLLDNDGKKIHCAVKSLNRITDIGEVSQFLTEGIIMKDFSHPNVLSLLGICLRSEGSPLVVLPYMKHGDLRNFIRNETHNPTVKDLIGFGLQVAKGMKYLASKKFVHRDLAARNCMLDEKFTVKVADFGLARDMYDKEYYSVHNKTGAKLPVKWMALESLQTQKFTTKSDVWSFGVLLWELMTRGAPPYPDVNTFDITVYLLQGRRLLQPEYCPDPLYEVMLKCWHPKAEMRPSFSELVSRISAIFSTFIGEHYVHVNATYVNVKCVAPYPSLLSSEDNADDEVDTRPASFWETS", "experiment": "GTL-16 c-Met autophosphorylation measured by AlphaScreen detection", "assay_type": "cell-based", "conditions": "GTL-16 cells, 1 h incubation, AlphaScreen p-c-Met; read-out: GTL-16 IC50 c-Met phosphorylation", "summary_of_the_method": "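GTL-16 MET-amplified gastric cancer cells, serum-free DMEM with 0.1% BSA, exposed to 8-point compound dilutions for 1 h at 37° C (0.11% DMSO final). Lysates probed for phospho-c-Met by AlphaScreen using anti-c-Met antibody, biotinylated PY20 phosphotyrosine antibody, Protein A acceptor and streptavidin donor beads.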"}},
  "note": "pIC50: −log10 of the molar value.",
  "data": [
    {"smiles": "C[C@@H](c1c(F)cc2ncccc2c1F)c1cnc2ccc(N3CCNC(=O)C3)nn12", "note": "(single isomer, unassigned) [Example 5]", "values": [
      {"measurement": "pIC50", "setting": "[1]", "result": 8.44},
      {"measurement": "pIC50", "setting": "c-Met", "result": "> 8.52"}
    ]},
    {"smiles": "C[C@@H](c1c(F)cc2ncccc2c1F)c1cnc2ccc(N3CCN(C)C(=O)C3)nn12", "note": "[Example 2, 4-{3-[(S)-1-(5,7-Difluoro-quinolin-6-yl)-ethyl]-imidazo[1,2-b]pyridazin-6-yl}-1-methyl-piperazin-2-one]", "values": [
      {"measurement": "pIC50", "setting": "[1]", "result": 8.77},
      {"measurement": "pIC50", "setting": "c-Met", "result": 8.57}
    ]},
    {"smiles": "C[C@@H](c1c(F)cc2ncccc2c1F)c1cnc2ccc(N3CCNCC3)nn12", "note": "[Example 7, 5,7-Difluoro-6-[(S)-1-(6-piperazin-1-yl-imidazo[1,2-b]pyridazin-3-yl)-ethyl]-quinoline]", "values": [
      {"measurement": "pIC50", "setting": "[1]", "result": 8.19},
      {"measurement": "pIC50", "setting": "c-Met", "result": 8.68}
    ]},
    {"smiles": "CC(=O)N1CCN(c2ccc3ncc([C@@H](C)c4c(F)cc5ncccc5c4F)n3n2)CC1", "note": "[Example 11, 1-(4-{3-[(S)-1-(5,7-Difluoro-quinolin-6-yl)-ethyl]-imidazo[1,2-b]pyridazin-6-yl}-piperazin-1-yl)ethanone]", "values": [
      {"measurement": "pIC50", "setting": "[1]", "result": 8.14},
      {"measurement": "pIC50", "setting": "c-Met", "result": 8.36}
    ]},
    {"smiles": "C[C@@H](c1cc2cnn(C)c2cc1F)c1cnc2ccc(N3CCNC(=O)C3)nn12", "note": "[Example 28, 4-{3-[(S)-1-(6-Fluoro-1-methyl-1H-indazol-5-yl)-ethyl]-imidazo[1,2-b]pyridazin-6-yl}-piperazin-2-one]", "values": [
      {"measurement": "pIC50", "setting": "[1]", "result": 7.59},
      {"measurement": "pIC50", "setting": "c-Met", "result": 7.96}
    ]}
  ]
}
